Results: ChEMBL document CHEMBL1201862, “PubChem BioAssay data set” (2004)
The source made the active and inactive calls.

Legend:
Kallikrein-7 = Kallikrein-7 (Homo sapiens, UniProt P49862); assay: Fluorescence Intensity-based biochemical primary high throughput dose response assay to identify activators of kallikrein-7 (K7) zymogen.
HEK293 [1] = assay: cells; conditions: Homo sapiens
[2] = ADAM10 inhibitors, peptide cleavage, dose response, biochemical, QFRET (AID 743254);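 also: ADAM10 enzyme with the DM2 quenched FRET peptide as substrate; EDANS fluorescence gain as the protease cuts the substrate; inhibitor potency against ADAM10 proteolytic activity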
[3] = target: Disintegrin and metalloproteinase domain-containing protein 17 (Homo sapiens, UniProt P78536); assay: ADAM17 protease inhibitors, dose response, counter-screen for ADAM10 exosite inhibitor project, biochemical, quenched FRET substrate (AID 743253)
Chain of Disintegrin and metalloproteinase domain-containing protein 17 (P78536 whole entry, the tested form may be a part): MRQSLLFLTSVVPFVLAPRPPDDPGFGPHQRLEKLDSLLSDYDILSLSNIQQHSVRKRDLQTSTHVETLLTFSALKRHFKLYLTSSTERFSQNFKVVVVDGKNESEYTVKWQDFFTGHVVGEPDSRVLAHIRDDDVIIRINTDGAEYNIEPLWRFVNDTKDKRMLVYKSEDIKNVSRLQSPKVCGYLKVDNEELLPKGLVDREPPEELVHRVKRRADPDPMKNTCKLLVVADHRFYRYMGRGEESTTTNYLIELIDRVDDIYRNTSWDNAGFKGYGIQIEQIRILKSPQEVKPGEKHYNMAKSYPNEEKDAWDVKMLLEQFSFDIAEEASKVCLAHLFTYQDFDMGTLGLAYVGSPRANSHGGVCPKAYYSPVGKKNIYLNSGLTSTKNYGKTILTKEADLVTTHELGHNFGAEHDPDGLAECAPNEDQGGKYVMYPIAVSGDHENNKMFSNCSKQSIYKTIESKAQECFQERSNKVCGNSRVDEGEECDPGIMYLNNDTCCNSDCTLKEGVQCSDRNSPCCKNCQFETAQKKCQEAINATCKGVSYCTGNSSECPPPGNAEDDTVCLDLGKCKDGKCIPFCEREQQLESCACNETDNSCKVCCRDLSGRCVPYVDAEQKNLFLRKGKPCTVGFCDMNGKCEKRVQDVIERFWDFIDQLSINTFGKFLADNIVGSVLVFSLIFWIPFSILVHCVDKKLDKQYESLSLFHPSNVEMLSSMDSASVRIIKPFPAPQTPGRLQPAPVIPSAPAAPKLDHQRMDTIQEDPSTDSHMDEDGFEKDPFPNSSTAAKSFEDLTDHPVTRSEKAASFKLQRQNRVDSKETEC

HEK293 [4] = assay: cells; conditions: Homo sapiens; remark: listed apart in the source
Paired box protein Pax-8 = Paired box protein Pax-8 (Homo sapiens, UniProt Q06710); assay: inhibitors of PAX8-driven TPO luciferase reporter, dose response, RMG-I cells, cherry-pick (AID 687027); type: functional, cell-based;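 also: luciferase reporter driven by Pax8 target thyroperoxidase promoter measured by SteadyGlo luminescence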
Chain of Paired box protein Pax-8 (Q06710 whole entry): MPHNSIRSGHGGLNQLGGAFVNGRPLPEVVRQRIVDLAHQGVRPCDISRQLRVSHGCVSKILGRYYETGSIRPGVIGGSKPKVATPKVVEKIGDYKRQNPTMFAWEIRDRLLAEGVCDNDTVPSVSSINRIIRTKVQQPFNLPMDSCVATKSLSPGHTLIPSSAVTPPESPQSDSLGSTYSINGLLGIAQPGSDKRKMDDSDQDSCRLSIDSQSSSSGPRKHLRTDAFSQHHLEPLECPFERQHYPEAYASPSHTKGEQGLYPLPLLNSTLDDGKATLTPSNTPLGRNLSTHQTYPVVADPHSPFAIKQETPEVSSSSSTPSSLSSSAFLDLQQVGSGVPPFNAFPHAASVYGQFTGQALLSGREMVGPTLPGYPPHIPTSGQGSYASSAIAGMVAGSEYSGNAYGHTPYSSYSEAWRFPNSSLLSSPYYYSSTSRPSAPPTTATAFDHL

[5] = non-specific cell cytotoxicity, dose response, cytotoxicity control for PAX8 inhibitor project, plate reader, dry powder samples (AID 743021); type: functional, cell-based
[6] = NIH:OVCAR-3 ovarian cancer cell cytotoxicity, dose response, PAX8 inhibitor project, plate reader, dry powder samples (AID 743044); type: functional, cell-based
[7] = A2780 ovarian cancer cell cytotoxicity, dose response, cytotoxicity control, plate reader, dry powder samples (AID 743046); type: functional, cell-based
[8] = cytotoxicity in OVCAR8 ovarian cancer cells, dose response, PAX8 project, cell-based, plate reader, dry powder samples (AID 743197); type: functional; conditions: OVCAR-8
Vasopressin V2 receptor = Vasopressin V2 receptor (Homo sapiens, UniProt P30518); assay: Late-stage results from the probe development effort to identify antagonists of arginine vasopressin receptor 1a (AVPR1a): fluorescence-based cell-based dose response AVPR2 inhibition counterscreen assay.; type: functional
Chain of Vasopressin V2 receptor (P30518 whole entry): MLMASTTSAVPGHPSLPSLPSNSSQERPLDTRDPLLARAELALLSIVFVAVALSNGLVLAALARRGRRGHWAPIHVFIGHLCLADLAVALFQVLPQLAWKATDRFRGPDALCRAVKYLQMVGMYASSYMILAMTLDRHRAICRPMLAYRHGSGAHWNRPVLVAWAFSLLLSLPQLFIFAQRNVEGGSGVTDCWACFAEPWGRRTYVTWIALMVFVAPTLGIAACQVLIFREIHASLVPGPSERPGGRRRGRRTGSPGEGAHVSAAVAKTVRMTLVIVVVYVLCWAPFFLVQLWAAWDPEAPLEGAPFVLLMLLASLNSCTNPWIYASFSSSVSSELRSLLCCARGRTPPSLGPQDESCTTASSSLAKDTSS

[9] = Late-stage results from the probe development effort to identify antagonists of arginine vasopressin receptor 1a (AVPR1a): fluorescence-based cell-based dose response OXTR inhibition counterscreen assay.; type: functional
[10] = Late-stage results from the probe development effort to identify antagonists of arginine vasopressin receptor 1a (AVPR1a): fluorescence-based cell-based dose response AVPR1a inhibition assay.; type: functional
Vasopressin V1b receptor = Vasopressin V1b receptor (Homo sapiens, UniProt P47901); assay: Late-stage results from the probe development effort to identify antagonists of arginine vasopressin receptor 1a (AVPR1a): fluorescence-based cell-based dose response AVPR1b inhibition counterscreen assay.; type: functional
Chain of Vasopressin V1b receptor (P47901 whole entry): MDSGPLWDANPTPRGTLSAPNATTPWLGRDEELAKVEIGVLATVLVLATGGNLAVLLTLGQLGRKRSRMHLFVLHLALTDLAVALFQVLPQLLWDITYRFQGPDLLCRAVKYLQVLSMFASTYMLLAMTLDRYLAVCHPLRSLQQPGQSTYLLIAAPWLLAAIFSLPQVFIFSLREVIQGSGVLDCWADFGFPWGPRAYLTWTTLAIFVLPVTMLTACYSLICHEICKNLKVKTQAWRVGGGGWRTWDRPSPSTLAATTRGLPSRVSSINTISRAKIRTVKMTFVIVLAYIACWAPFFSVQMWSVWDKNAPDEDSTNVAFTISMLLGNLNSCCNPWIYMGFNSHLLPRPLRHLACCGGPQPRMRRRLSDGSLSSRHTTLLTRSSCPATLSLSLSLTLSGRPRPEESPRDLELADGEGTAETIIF

[11] = CellTiter-Glo luminescent dose response of DLD-1 viability loss (AID 1117352); type: functional
[12] = cytotoxicity toward HT-29 cells – cell-based, CellTiter-Glo luminescence, IC50, dose response (AID 1117330); type: functional
[13] = cytotoxicity toward HCT116 cells – cell-based, CellTiter-Glo luminescence, IC50, dose response (AID 1117332); type: functional; conditions: HCT-116
[14] = cytotoxicity toward Colo320 cells – cell-based, CellTiter-Glo luminescence, IC50, dose response (AID 1117334); type: functional; conditions: COLO 320
[15] = SNU-C1 cell viability reduction, dose response, CellTiter-Glo luminescence (AID 1117323); type: functional, cell-based
[16] = RKO cell viability reduction, dose response, CellTiter-Glo luminescence (AID 1117322); type: functional
[17] = HeLa 2N DNA content increase, dose response, cell-based, IC50 (AID 1117349); type: functional
[18] = HeLa 4N DNA content increase, dose response, cell-based, IC50 (AID 1117351); type: functional
[19] = Concentration-dependent survival of SW480 colon cancer line, luminescence detection with CellTiter-Glo, half-maximal inhibitory concentration (AID 1117338); type: functional

Chain of Kallikrein-7 (P49862 whole entry): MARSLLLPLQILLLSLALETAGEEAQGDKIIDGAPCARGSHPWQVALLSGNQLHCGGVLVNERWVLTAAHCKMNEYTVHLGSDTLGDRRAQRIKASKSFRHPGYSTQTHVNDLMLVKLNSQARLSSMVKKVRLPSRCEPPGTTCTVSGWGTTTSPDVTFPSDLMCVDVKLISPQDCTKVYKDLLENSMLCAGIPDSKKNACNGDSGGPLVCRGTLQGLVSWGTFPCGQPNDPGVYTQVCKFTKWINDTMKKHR

For `COc1ccccc1N(C)S(=O)(=O)c1ccc(C(=O)Nc2ccc(C(N)=O)cc2)cc1`, the EC50 (Kallikrein-7) was 15.8 µM (inactive).

With `CC1(Cc2cccc(C#N)c2)C(=O)Nc2ccc(-c3cccc(C(F)(F)F)c3)cc21` (centres undefined) the EC50 (HEK293 [1]) was > 59.7 µM (inactive), the IC50 [2] was 8.9 µM (active) and the IC50 [3] was > 69.5 µM (inactive). The EC50 (HEK293 [4]) was > 59.7 µM (inactive).

With `Cc1ccccc1-c1ccc2c(c1)O[C@H](CN(C)C(=O)Nc1ccc(C(F)(F)F)cc1)[C@H](C)CN([C@@H](C)CO)S2(=O)=O` the AC50 (Paired box protein Pax-8) was 9.3 µM (active), the AC50 [5] was 44.3 µM (active) and the AC50 [6] was 42.5 µM (active). For the same compound, the AC50 [7] was < 0.26 µM (active).

With `C[C@H](CO)N1C[C@H](C)[C@H](CN(C)S(=O)(=O)c2ccccc2)OCCCC[C@H](C)Oc2ccc(NS(=O)(=O)c3ccc(Cl)cc3)cc2C1=O` the AC50 (Paired box protein Pax-8) was 10.1 µM (active), the AC50 [8] was 3.41 µM (active) and the AC50 [7] was 6.87 µM (active).

In the case of `O=C(C1CCN(c2ccc(F)cn2)CC1)N(CC1CC1)c1ccc(Cl)cc1`, the IC50 (Vasopressin V2 receptor) is reported as 24.3 µM (inactive), the IC50 [9] is reported as 9 µM (active) and the IC50 [10] is reported as 0.0241 µM (active). For the same compound, the IC50 (Vasopressin V1b receptor) was 20.5 µM (inactive).

With `COCCN(C(=O)N1CCN(c2ccccc2C)CC1)c1ccc(OC)cc1` the IC50 (Vasopressin V2 receptor) was 19.6 µM (inactive), the IC50 [9] was 1 µM (active) and the IC50 [10] was 0.1 µM (active). For the same compound, the IC50 (Vasopressin V1b receptor) was 29.3 µM (inactive).

With `O=C1C(O)=C([C@H]2CC[C@H](c3ccc(Cl)cc3)CC2)C(=O)c2ccccc21` [ATOVAQUONE] the IC50 [11] was 0.0838 µM (active), the IC50 [12] was 0.411 µM (active) and the IC50 [13] was 0.138 µM (active). The IC50 [14] was 0.176 µM (active), the IC50 [15] was 0.368 µM (active) and the IC50 [16] was 0.114 µM (active). For the same compound, the IC50 [17] was > 10 µM (inactive), the IC50 [18] was > 10 µM (inactive) and the IC50 [19] was 0.0946 µM (active).
